Assay results reported in article PMC4721142, “Randomized controlled studies on the efficacy of antiarthritic agents in inhibiting cartilage degeneration and pain associated with progression of osteoarthritis in the rat” (Arthritis Research & Therapy, 2016).

Columns and labels:
[1] = Comparison of in vitro screens: overlapping effective and nontoxic range; details: for Overlapping effective and nontoxic range: inhibits with minimal or no toxicity to synovium or cartilage, overlapping range if effective in more than one assay;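 for all read-outs here: compares non-toxic ranges in synovial cells and chondrocytes with effective ranges against NFkB, MMP-13 and osteoclasts, giving their overlap as the predicted efficacy range in uM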
[2] = system: Normal human articular chondrocytes; assay: Cytotoxicity to chondrogenic pellets (CellTiter-Blue)
Description: Differentiated chondrogenic pellets were used both to test the ability of drugs to block MMP-13 activity and to test for drug toxicity. […] Supernatants were collected and analyzed for MMP-13 using an enzyme-linked immunosorbent assay (GE Healthcare Life Sciences, Little Chalfont, UK). Cytotoxicity to pellets was assessed using CellTiter-Blue (Promega).

[3] = published half-life; cited from earlier work
RAW 264.7 cells = assay: RANKL-mediated osteoclastogenesis / matrix resorption (Osteologic) assay; assay type: cell-based, murine; details: for minimal effective concentration: Mus musculus, RAW264.7, 168 h, read-out: Lowest inhibitory concentration, matrix resorption
In short: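 Agents were tested during or after differentiation. Wells were bleached and resorption pits were quantified by image analysis versus RANKL-only controls, using an unpaired t-test.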

SW982 = assay: Synovial toxicity (CellTiter-Glo), with or without TNF-α
Description: Viability was measured with the CellTiter-Glo luminescent viability assay (Promega). […] To more accurately predict the effects of the drugs on osteoarthritic synovium, cells were tested with or without TNF-α (20 ng/ml; BioSource).
In Vitro Toxicity Testing with a Synovial Cell Line
Compounds were tested for synovial toxicity using SW982 cells alone or in the presence of TNF as

MIA rat model of OA = assay: MIA trial 3 digital Randall-Selitto test (weekly i.a. clonidine 4.5 μg, tacrolimus 30 ng, fluocinolone 15 ng, meloxicam 100 μg, tranilast 500 ng, TH 150 μg; clonidine 100 μg/kg s.c.); assay type: in vivo
Description: The digital Randall-Selitto (dRS) test is said to be a reliable and repeatable measure of neuropathic, bone, and inflammatory pain behavior in several different models, including those of arthritic or joint pain [29, 31, 32]. Baseline and posttreatment values were evaluated using a dRS test device (IITC Life Science, Woodland Hills, CA, USA). Animals were allowed to acclimate to the testing room before all experimentation and for a minimum of 30 minutes before testing. To ensure that their hind limbs were accessible, the animals were gently suspended in a restraint sling. The joint compression threshold was measured once at each time point for the ipsilateral and contralateral knee joints. Pressure was applied gradually over approximately 10 seconds to the medial and lateral aspects of the knee joint. Measurements were taken from the first observed behavior of vocalization, struggle, or withdrawal. A cutoff value of 600 g was used to prevent injury to the animal.
Following isoflurane anesthesia, 50 μl (2 mg) of MIA was injected into the synovial space of the left knee. Animals were randomly assigned to groups, and pain behavior was assessed 7, 14, 21, and 28 days following MIA injection and intervention using WB with the Stoelting incapacitance meter (trial 1) or the dRS test (trials 2 and 3). […] Animals received MIA treatment and then saline control or therapeutic. […] Histopathology was performed at each time point and at study termination. All studies were conducted in accordance with the International Association for the Study of Pain Guidelines and were approved by the Algos Therapeutics, Inc. Institutional Animal Care and Use Committee (IACUC) before initiation. Those running the studies were blind to the treatments. See Additional file 1 for further details. […]
struggle or withdrawal. A cut-off value of 600 g was used to prevent injury to the animal. The mean and standard error of the mean (SEM) were determined for each treatment group.
Statistical significance was assigned as p ≤ 0.05. The stability of the vehicle group over time was assessed on each testing day (Days 7, 14, 21, and 28) using repeated measures one-way analysis of variance (ANOVA) comparing joint compression thresholds at each experimental time point on a given testing day versus that testing day’s pre-treatment value. Osteoarthritis-related pain in the vehicle group was estimated at each time point on each testing day by comparing ipsilateral (injured) to contralateral (normal) joint compression thresholds using paired t-tests. The progression of osteoarthritis-related pain in the vehicle group was estimated by comparing pre-treatment joint compression thresholds on each testing day versus pre-MIA measurements using repeated measures one-way ANOVA. […]
thresholds at each experimental time point on a given testing day with vehicle treated animals using an unpaired t-test. The acute effect of Tacrolimus was analyzed by comparing joint compression thresholds at each time point on a given testing day with the corresponding pre-treatment baseline values using repeated measures one-way ANOVA and compared to vehicle treated animals using […]
values using repeated measures one-way ANOVA. Chronic effects were analyzed by comparing pre-treatment joint compression thresholds on each testing day versus the appropriate Day 7 pre-treatment values using repeated measures one-way ANOVA and by comparing pre-treatment joint compression thresholds with vehicle treated animals on each testing day using an unpaired t-test or one-way ANOVA. Day 7 pre-treatment joint compression thresholds between all groups were assessed using one-way ANOVA. The Dunnett’s multiple comparison post hoc test was used when […]
dosing were housed three per cage. Animals had free access to food and water and were maintained […]
The animal colony was maintained at approximately 21 °C. All experiments were conducted in accordance with the International Association for the Study of Pain Guidelines.

In the case of CC1=C(CO)C(=O)O[C@@H]([C@@H](C)[C@H]2CC[C@H]3[C@@H]4C[C@H]5O[C@]56[C@@H](O)C=CC(=O)[C@]6(C)[C@H]4CC[C@]23C)C1 [Withaferin A], the “Non-toxic & predicted range of efficacy” value [1] was 0.27 to 2.1 µM, the “Overlapping effective and nontoxic range” value [1] was 4.25 to 17 µM and the Non-toxic range (Chondrocyte) [2] was 0.27 to 2.1 µM. The “t 1/2” value [3] was “Reportedly inhibits NF-κB activation by preventing the TNF-α-induced activation of IKK-β (IKK-2) [102] Blocks osteoclastogenesis of bone remodeling [103] t 1/2 = 1.36 h”, the minimal effective concentration (RAW 264.7 cells) was 0.53 µM and the “Non-toxic range (Synovial)” value (SW982) was “Toxic”.
With CC(C)(C)CC(=O)OCC(=O)[C@@]12OC(C)(C)O[C@@H]1C[C@H]1[C@@H]3CCC4=CC(=O)C=C[C@]4(C)[C@@]3(F)[C@@H](O)C[C@@]12C [Triamcinolone hexacetonide] the “Overlapping effective and nontoxic range” value [1] was 62.5 to 3750 µM, the “dRS, hours after dosing with significant difference” value (“dRS … with significant difference” for short) (MIA rat model of OA; day 7) was 3 h and the “dRS … with significant difference” value (MIA rat model of OA; day 14) was 1 h. For the same compound, the “dRS … with significant difference” value (MIA rat model of OA; day 21) was “Pretrt^f”, the “dRS … with significant difference” value (MIA rat model of OA; day 28, negative = worse) was -24 h and the “t 1/2” value [3] was “Steroid t 1/2 = 88 min”. For the same compound, the minimal effective concentration (RAW 264.7 cells) was 0.297 µM and the Non-toxic range (Synovial) (SW982) was 3.12 to 400 µM.
In the case of COc1cc(/C=C/C(=O)CC(=O)/C=C/c2ccc(O)c(OC)c2)ccc1O [Curcumin, Diferuloylmethane], the Non-toxic range (Chondrocyte) [2] is given as 0.84 to 27 µM, the “t 1/2 intestinal” value [3] is given as 10 min and the “t 1/2 plasma” value [3] is given as 30 to 50 min. It also gave a Non-toxic range (Synovial) (SW982) of 1.7 to 54 µM.
For Clc1cccc(Cl)c1N=C1NCCN1 [Clonidine], the “Overlapping effective and nontoxic range” value [1] was 10 to 100 µM, the “dRS … with significant difference” value (MIA rat model of OA; day 7) was 1 h and the Non-toxic range (Chondrocyte) [2] was 0.156 to 100 µM. The “t 1/2” value [3] was “α2-Receptor agonist and antihypertensive agent Possible induction of iNOS through NF-κB [77] t 1/2 = 6–20 h”, the “Lowest inhibitory concentration, matrix resorption” value (RAW 264.7 cells) was 10 µM and the Non-toxic range (Synovial) (SW982) was 1.56 to 100 µM.
For C=CC[C@@H]1/C=C(\C)C[C@H](C)C[C@H](OC)[C@H]2O[C@@](O)(C(=O)C(=O)N3CCCC[C@H]3C(=O)O[C@H](/C(C)=C/[C@@H]3CC[C@@H](O)[C@H](OC)C3)[C@H](C)[C@@H](O)CC1=O)[C@H](C)C[C@@H]2OC [Tacrolimus], the “Non-toxic & predicted range of efficacy” value [1] was 25 to 50 µM, the “Overlapping effective and nontoxic range” value [1] was 50 µM and the Non-toxic range (Chondrocyte) [2] was 0.8 to 50 µM. The minimal effective concentration (RAW 264.7 cells) was 0.0026 µM and the Non-toxic range (Synovial) (SW982) was 1.5 to 100 µM.
In the case of COc1ccc(C=CC(=O)Nc2ccccc2C(=O)O)cc1OC [Tranilast, N-(3′,4′-dimethoxycinnamoyl)anthranilic acid], the “Non-toxic & predicted range of efficacy” value [1] was 1 to 8 µM, the “Overlapping effective and nontoxic range” value [1] was 1 to 8 µM and the “dRS … with significant difference” value (MIA rat model of OA; day 14) was 1 h. The “dRS … with significant difference” value (MIA rat model of OA; day 21) was 1 h, the “Non-toxic range (Chondrocyte)” value [2] was 125000 to 8e+06 µM and the “t 1/2” value [3] was “Anti-inflammatory and analgesic properties in collagen-induced arthritis (RA model) [34]. Suppresses COX-2 and iNOS expression, reduces PGE2 and iNOS-derived NO production in stimulated macrophages. Diminishes TNF-α and IL-1β production [35]. T1/2 = 7.4 h”. The minimal effective concentration (RAW 264.7 cells) was 0.5 µM and the Non-toxic range (Synovial) (SW982) was 0.125 to 8 µM.
With CC1(C)O[C@@H]2C[C@H]3[C@@H]4C[C@H](F)C5=CC(=O)C=C[C@]5(C)[C@@]4(F)[C@@H](O)C[C@]3(C)[C@]2(C(=O)CO)O1 [Fluocinolone, Fluocinolone Acetonide] the “Non-toxic & predicted range of efficacy” value [1] was 3.1 to 250 µM, the “Overlapping effective and nontoxic range” value [1] was 3.1 to 100 µM and the “dRS … with significant difference” value (MIA rat model of OA; day 7) was 1 h. For the same compound, the “dRS … with significant difference” value (MIA rat model of OA; day 28, negative = worse) was -24 h, the Non-toxic range (Chondrocyte) [2] was 1.56 to 250 µM and the “t 1/2” value [3] was “Corticosteroid (potent) Blocks IL-1 and TNF production and TNF-induced apoptosis [92] t 1/2 = 1.3 – 1.7 h”. The “Effective range against Osteoclasts” value (RAW 264.7 cells) was no less than 9.77 nM, the minimal effective concentration (RAW 264.7 cells) was 0.00977 µM and the Non-toxic range (Synovial) (SW982) was 1.56 to 100 µM.
